Assay results from the NIST ThermoML archive (doi:10.1016/j.jct.2016.07.012).

Assay: molar heat capacity at constant pressure
Conditions: 101.33 kPa, Small (less than 1 g) adiabatic calorimetry

CCCCn1cc[n+](C)c1.F[P-](F)(F)(F)(F)F [1-butyl-3-methylimidazolium hexafluorophosphate]
Conditions | molar heat capacity at constant pressure [J/K/mol]
125.32 K, Metastable crystal | 185.9
127.15 K, Metastable crystal | 191.2
127.23 K, Metastable crystal | 188.2
129.05 K, Metastable crystal | 193.4
129.15 K, Metastable crystal | 190.5
130.95 K, Metastable crystal | 195.6
131.06 K, Metastable crystal | 192.8
132.85 K, Metastable crystal | 197.9
132.97 K, Metastable crystal | 195.1
134.75 K, Metastable crystal | 200.2
134.88 K, Metastable crystal | 197.5
136.65 K, Metastable crystal | 202.5
136.8 K, Metastable crystal | 199.9
138.55 K, Metastable crystal | 204.9
138.71 K, Metastable crystal | 202.4
140.45 K, Metastable crystal | 207.2
140.62 K, Metastable crystal | 204.8
142.35 K, Metastable crystal | 209.7
142.52 K, Metastable crystal | 207.4
144.24 K, Metastable crystal | 212.3
144.42 K, Metastable crystal | 209.9
146.13 K, Metastable crystal | 214.9
146.33 K, Metastable crystal | 212.5
148.01 K, Metastable crystal | 217.6
148.23 K, Metastable crystal | 215.1
149.9 K, Metastable crystal | 220.4
150.13 K, Metastable crystal | 217.7
151.78 K, Metastable crystal | 223.4
152.02 K, Metastable crystal | 220.4
153.65 K, Metastable crystal | 226.5
153.91 K, Metastable crystal | 223.1
155.52 K, Metastable crystal | 229.7
155.79 K, Metastable crystal | 225.9
157.39 K, Metastable crystal | 233.2
157.67 K, Metastable crystal | 228.7
159.24 K, Metastable crystal | 236.9
159.55 K, Metastable crystal | 231.5
161.09 K, Metastable crystal | 241
161.42 K, Metastable crystal | 234.4
162.93 K, Metastable crystal | 245.5
163.29 K, Metastable crystal | 237.3
164.76 K, Metastable crystal | 250.5
165.15 K, Metastable crystal | 240.3
166.58 K, Metastable crystal | 256.4
167.01 K, Metastable crystal | 243.2
168.38 K, Metastable crystal | 263.5
168.87 K, Metastable crystal | 246.3
170.16 K, Metastable crystal | 272.5
170.71 K, Metastable crystal | 249.4
171.91 K, Metastable crystal | 285.3
172.55 K, Metastable crystal | 252.6
173.61 K, Metastable crystal | 306.7
174.39 K, Metastable crystal | 256.1
175.22 K, Metastable crystal | 360.5
176.22 K, Metastable crystal | 258.9
176.68 K, Metastable crystal | 448.8
178.04 K, Metastable crystal | 260.8
178.27 K, Metastable crystal | 265.8
179.86 K, Metastable crystal | 263.5
180.09 K, Metastable crystal | 261.1
181.68 K, Metastable crystal | 266.1
181.91 K, Metastable crystal | 261.4
183.5 K, Metastable crystal | 268.6
183.75 K, Metastable crystal | 262.7
185.31 K, Metastable crystal | 270.9
185.58 K, Metastable crystal | 264.6
187.12 K, Metastable crystal | 273
187.4 K, Metastable crystal | 266.8
188.92 K, Metastable crystal | 274.8
189.22 K, Metastable crystal | 269.2
190.72 K, Metastable crystal | 276.4
191.04 K, Metastable crystal | 271.8
192.53 K, Metastable crystal | 277.7
192.86 K, Metastable crystal | 274.6
194.33 K, Metastable crystal | 278.7
194.66 K, Metastable crystal | 277.6
196.13 K, Metastable crystal | 279.3
196.47 K, Metastable crystal | 280.8
197.94 K, Metastable crystal | 279.8
198.27 K, Metastable crystal | 284.1
199.74 K, Metastable crystal | 280
200.05 K, Metastable crystal | 287.7
201.61 K, Metastable crystal | 280.4
201.89 K, Metastable crystal | 291.8
203.54 K, Metastable crystal | 280.7
203.78 K, Metastable crystal | 296.2
205.47 K, Metastable crystal | 281
205.65 K, Metastable crystal | 301.3
207.4 K, Metastable crystal | 281.3
207.51 K, Metastable crystal | 306.9
209.34 K, Metastable crystal | 281.8
209.36 K, Metastable crystal | 313.5
211.19 K, Metastable crystal | 322.6
211.28 K, Metastable crystal | 282.5
213 K, Metastable crystal | 333.5
213.22 K, Metastable crystal | 283.4
214.77 K, Metastable crystal | 351.9
215.16 K, Metastable crystal | 284.4
216.47 K, Metastable crystal | 395.3
217.1 K, Metastable crystal | 285.1
218.22 K, Metastable crystal | 317.7
219.04 K, Metastable crystal | 285.7
220.12 K, Metastable crystal | 285.9
220.98 K, Metastable crystal | 286.7
222.07 K, Metastable crystal | 286.7
222.93 K, Metastable crystal | 287.8
224.04 K, Metastable crystal | 287.5
224.86 K, Metastable crystal | 288.7
226.9 K, Metastable crystal | 290
228.84 K, Metastable crystal | 291.1
230.78 K, Metastable crystal | 292
232.72 K, Metastable crystal | 293
234.67 K, Metastable crystal | 294.1
236.61 K, Metastable crystal | 295.2
238.55 K, Metastable crystal | 296.3
240.49 K, Metastable crystal | 298.3
242.43 K, Metastable crystal | 299.6
286.27 K, Liquid | 400.3
287.99 K, Liquid | 401.2
289.7 K, Liquid | 402.1
291.41 K, Liquid | 403
293.12 K, Liquid | 404
294.83 K, Liquid | 405.1
296.54 K, Liquid | 405.8
298.25 K, Liquid | 406.9
299.96 K, Liquid | 407.8
301.71 K, Liquid | 409.1
303.52 K, Liquid | 410.1
305.33 K, Liquid | 411
307.14 K, Liquid | 412
308.95 K, Liquid | 412.9
310.75 K, Liquid | 414
312.56 K, Liquid | 415.1
314.36 K, Liquid | 415.8
316.16 K, Liquid | 417
317.97 K, Liquid | 418
319.77 K, Liquid | 419.2
321.57 K, Liquid | 420.1
323.38 K, Liquid | 421
325.18 K, Liquid | 422
326.98 K, Liquid | 423.2
328.78 K, Liquid | 423.9
330.59 K, Liquid | 425
332.39 K, Liquid | 426.1
334.19 K, Liquid | 427.2
335.99 K, Liquid | 428.2
337.79 K, Liquid | 429.2
339.59 K, Liquid | 430.2
341.39 K, Liquid | 431.1
343.18 K, Liquid | 432.1
344.98 K, Liquid | 433.1
346.78 K, Liquid | 434.1
348.58 K, Liquid | 435.2
350.38 K, Liquid | 436.3
352.18 K, Liquid | 437.4
353.99 K, Liquid | 438.3
355.79 K, Liquid | 439.3
357.59 K, Liquid | 440.3
359.4 K, Liquid | 441.1
361.2 K, Liquid | 442.4
363 K, Liquid | 443.4
364.81 K, Liquid | 444.5
366.61 K, Liquid | 445.6
368.41 K, Liquid | 446.3
